Reference: US8269026B2, “Lupane derivatives useful for treating HIV” (priority 2008, dated 2012)

The molecules below were run on HIV-1 (HIVIIIB) replication in MT2 cell line (assay: HIV-1 replication in MT2 cell line with and without 30% human serum (viral RT activity in supernatant)). Settings: Human immunodeficiency virus 1, MT2 cells, with 30% human serum, average IC50 if tested more than once, read-out: MT2 (HIVIIIB) with HS 30% IC50 range.
Assay type: cell-based
Procedure, shortened: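 Read-out is supernatant reverse transcriptase activity on day 5 post-infection, giving IC50 and IC90. Compounds were titrated in complete medium ± 30% human serum, re-dosed after 3 days, on MT2 cells exposed for 3 h to HIVIIIB at MOI 0.5 then washed.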

Going from CC(C)C1=C2C3CCC4[C@@]5(C)CC[C@H](OC(=O)[C@H]6CCC[C@@H](C(=O)O)C6)C(C)(C)C5CC[C@@]4(C)[C@]3(C)CC[C@@]2(N)CC1=O (stereo partly drawn) [15-2, 3β-O-(cis-Cyclohexane-3′-carboxylic acid-1′-carboxyl)-17β-amino-21-oxolup-18-ene] to CC(C)C1=C2C3CCC4[C@@]5(C)CC[C@H](OC(=O)CC(C)(C)C(=O)O)C(C)(C)C5CC[C@@]4(C)[C@]3(C)CC[C@@]2(NC(=O)C2CCOCC2)CC1=O (stereo partly drawn) [19-30, 3β-O-(3′,3′-Dimethylsuccinyl)-17β-tetrahydro-pyran-4-carbonylamino-21-oxolup-18-ene], the IC50 falls from > 1000 nM to < 199 nM.

Cc1cnc(C(=O)N[C@@]23CC[C@]4(C)C(CCC5[C@@]6(C)CC[C@H](OC(=O)CC(C)(C)C(=O)O)C(C)(C)C6CC[C@]54C)C2=C(C(C)C)C(=O)C3)o1 (stereo partly drawn) [19-80, 3β-O-(3′,3′-Dimethylsuccinyl)-17β-(5-methyl-[1,3]-oxazole-2-amido)-21-oxolup-18-ene] and CC(C)C1=C2[C@H]3CC[C@@H]4[C@@]5(C)CC[C@H](OC(=O)CC(C)(C)C(=O)O)C(C)(C)[C@@H]5CC[C@@]4(C)[C@]3(C)CC[C@@]2(NC(=O)c2cn(C)cn2)CC1=O [19-19, 3β-O-(3′,3′-Dimethylsuccinyl)-17β-(1-methyl-1H-imidazole-4-amido)-21-oxolup-18-ene] cannot be ordered by IC50: < 199 nM for the first, < 199 nM for the second.

CC(C)C1=C2C3CCC4[C@@]5(C)CC[C@H](OC(=O)CC(C)(C)C(=O)O)C(C)(C)C5CC[C@@]4(C)[C@]3(C)CC[C@@]2(NC(=O)NCC2CCC(F)(F)CC2)CC1=O (stereo partly drawn) [17-60, 3β-O-(3′,3′-Dimethylsuccinyl)-17β-[N′-(4,4-difluoro-cyclohexyl-methyl)ureido]-21-oxolup-18-ene] and CC(C)C1=C2C3CCC4[C@@]5(C)CC[C@H](OC(=O)CC(C)(C)C(=O)O)C(C)(C)C5CC[C@@]4(C)[C@]3(C)CC[C@@]2(NC(=O)N2CCC(F)(F)C2)CC1=O (stereo partly drawn) [17-58] cannot be ordered by IC50: < 199 nM for the first, < 199 nM for the second.

CC(C)C1=C2C3CCC4[C@@]5(C)CC[C@H](OC(=O)CC(C)(C)C(=O)O)C(C)(C)C5CC[C@@]4(C)[C@]3(C)CC[C@@]2(NC(=O)N[C@H](C)C(F)(F)F)CC1=O (stereo partly drawn) [17-51, 3β-O-(3′,3′-Dimethylsuccinyl)-17β-[N′-((R)-2,2,2-trifluoro-1-methyl-ethyl)-ureido]-21-oxolup-18-ene] and CC(C)OC(=O)N[C@@]12CC[C@]3(C)[C@H](CC[C@@H]4[C@@]5(C)CC[C@H](OC(=O)CC(C)(C)C(=O)O)C(C)(C)[C@@H]5CC[C@]43C)C1=C(C(C)C)C(=O)C2 [20-2] cannot be ordered by IC50: < 199 nM for the first, < 199 nM for the second.

CC(C)C1=C2[C@H]3CC[C@@H]4[C@@]5(C)CC[C@H](OC(=O)CC(C)(C)C(=O)O)C(C)(C)[C@@H]5CC[C@@]4(C)[C@]3(C)CC[C@@]2(NC(=O)CCCN2CCCC2)CC1=O [19-39, 3β-O-(3′,3′-Dimethylsuccinyl)-17β-(4-pyrrolidin-1-yl-butyramido)-21-oxolup-18-ene] and CC(C)C1=C2[C@H]3CC[C@@H]4[C@@]5(C)CC[C@H](OC(=O)CC(C)(C)C(=O)O)C(C)(C)[C@@H]5CC[C@@]4(C)[C@]3(C)CC[C@@]2(NC(=O)CCN2CCCCC2)CC1=O [19-40, 3β-O-(3′,3′-Dimethylsuccinyl)-17β-(3-piperidin-1-yl-propionamido)-21-oxolup-18-ene] cannot be ordered by IC50: < 199 nM for the first, < 199 nM for the second.

CC(C)C1=C2[C@H]3CC[C@@H]4[C@@]5(C)CC[C@H](OC(=O)CC(C)(C)C(=O)O)C(C)(C)[C@@H]5CC[C@@]4(C)[C@]3(C)CC[C@@]2(NC(=O)NCc2ccccc2)CC1=O [17-1, 3β-O-(3′,3′-Dimethylsuccinyl)-17β[N′-(benzyl)ureido]-21-oxolup-18-ene] and CC(C)C1=C2C3CCC4[C@@]5(C)CC[C@H](OC(=O)CC(C)(C)C(=O)O)C(C)(C)C5CC[C@@]4(C)[C@]3(C)CC[C@@]2(NC(=O)NCc2ccncc2)CC1=O (stereo partly drawn) [17-31, 3β-O-(3′,3′-Dimethylsuccinyl)-17β-[N′-(pyridin-4-ylmethyl)ureido]-21-oxolup-18-ene] cannot be ordered by IC50: < 199 nM for the first, < 199 nM for the second.

CC(C)C1=C2C3CCC4[C@@]5(C)CC[C@H](OC(=O)CC(C)(C)C(=O)O)C(C)(C)C5CC[C@@]4(C)[C@]3(C)CC[C@@]2(NC(=O)c2nnc(C3CC3)o2)CC1=O (stereo partly drawn) [19-62, 3β-O-(3′,3′-Dimethylsuccinyl)-17β-(5-cyclopropyl-[1,3,4]oxadiazole-2-amido)-21-oxolup-18-ene] and Cc1nnc(C(=O)N[C@@]23CC[C@]4(C)C(CCC5[C@@]6(C)CC[C@H](OC(=O)CC(C)(C)CC(=O)O)C(C)(C)C6CC[C@]54C)C2=C(C(C)C)C(=O)C3)o1 (stereo partly drawn) [19-75, 3β-O-(3′,3′-Dimethylglutaryl)-17β-(5-methyl-[1,3,4]oxadiazole-2-amido)-21-oxolup-18-ene] cannot be ordered by IC50: < 199 nM for the first, < 199 nM for the second.

CC(C)C1=C2C3CCC4[C@@]5(C)CC[C@H](OC(=O)CC(C)(C)C(=O)O)C(C)(C)C5CC[C@@]4(C)[C@]3(C)CC[C@@]2(NC(=O)NC2CCCCC2)CC1=O (stereo partly drawn) [17-7, 3β-O-(3′,3′-Dimethylsuccinyl)-17β-[N′-(cyclohexyl)ureido]-21-oxolup-18-ene] and CC(C)C1=C2C3CCC4[C@@]5(C)CC[C@H](OC(=O)CC(C)(C)C(=O)O)C(C)(C)C5CC[C@@]4(C)[C@]3(C)CC[C@@]2(NC(=O)OC2CCCCC2)CC1=O (stereo partly drawn) [20-5, 3β-O-(3′,3′-Dimethylsuccinyl)-17β-cyclohexyloxycarbonylamino-21-oxolup-18-ene] cannot be ordered by IC50: < 199 nM for the first, < 199 nM for the second.

CC(C)C1=C2C3CCC4[C@@]5(C)CC[C@H](OC(=O)CC(C)(C)C(=O)O)C(C)(C)C5CC[C@@]4(C)[C@]3(C)CC[C@@]2(NC(=O)c2ccncn2)CC1=O (stereo partly drawn) [19-25, 3β-O-(3′,3′-Dimethylsuccinyl)-17β-(pyrimidine-4-amido)-21-oxolup-18-ene] and CC(C)C1=C2C3CCC4[C@@]5(C)CC[C@H](OC(=O)CC(C)(C)C(=O)O)C(C)(C)C5CC[C@@]4(C)[C@]3(C)CC[C@@]2(NC(=O)c2ncccn2)CC1=O (stereo partly drawn) [19-22, 3β-O-(3′,3′-Dimethylsuccinyl)-17β-(pyrimidine-2-amido)-21-oxolup-18-ene] cannot be ordered by IC50: < 199 nM for the first, < 199 nM for the second.

CC(C)C1=C2[C@H]3CC[C@@H]4[C@@]5(C)CC[C@H](OC(=O)CC(C)(C)C(=O)O)C(C)(C)[C@@H]5CC[C@@]4(C)[C@]3(C)CC[C@@]2(NC(=O)Nc2ccncc2)CC1=O [17-26, 3β-O-(3′,3′-Dimethylsuccinyl)-17β-(N′-pyridin-4-yl-ureido)-21-oxolup-18-ene] and CC(C)C1=C2C3CCC4[C@@]5(C)CC[C@H](OC(=O)CC(C)(C)C(=O)O)C(C)(C)C5CC[C@@]4(C)[C@]3(C)CC[C@@]2(NC(=O)N[C@@H](C)c2ccccc2)CC1=O (stereo partly drawn) [17-61, 3β-O-(3′,3′-Dimethylsuccinyl)-17β-[N′-((S)-1-phenyl-ethyl)-ureido]-21-oxolup-18-ene] cannot be ordered by IC50: < 199 nM for the first, < 199 nM for the second.

CC(C)C1=C2C3CCC4[C@@]5(C)CC[C@H](OC(=O)CC(C)(C)C(=O)O)C(C)(C)C5CC[C@@]4(C)[C@]3(C)CC[C@@]2(NC(=O)OCC2CCCN(C)C2)CC1=O (stereo partly drawn) [20-19, 3β-O-(3′,3′-Dimethylsuccinyl)-17β-(1-methylpiperidine-3-methoxycarbonylamino)-21-oxolup-18-ene] and CC(C)C1=C2C3CCC4[C@@]5(C)CC[C@H](OC(=O)CC(C)(C)C(=O)O)C(C)(C)C5CC[C@@]4(C)[C@]3(C)CC[C@@]2(NC(=O)OC(C)C2CC2)CC1=O (stereo partly drawn) [20-10, 3β-O-(3′,3′-Dimethylsuccinyl)-17β-(1-cyclopropylethoxycarbonylamino)-21-oxolup-18-ene] cannot be ordered by IC50: < 199 nM for the first, < 199 nM for the second.

CC(C)C1=C2[C@H]3CC[C@@H]4[C@@]5(C)CC[C@H](OC(=O)CC(C)(C)C(=O)O)C(C)(C)[C@@H]5CC[C@@]4(C)[C@]3(C)CC[C@@]2(NC(=O)Cc2ccc(F)cc2)CC1=O [19-9, 3β-O-(3′,3′-Dimethylsuccinyl)-17β-(4-fluorobenzyl)amido-21-oxolup-18-ene] and Cc1ccc(C(=O)N[C@@]23CC[C@]4(C)[C@H](CC[C@@H]5[C@@]6(C)CC[C@H](OC(=O)CC(C)(C)C(=O)O)C(C)(C)[C@@H]6CC[C@]54C)C2=C(C(C)C)C(=O)C3)cc1 [19-43, 3β-O-(3′,3′-Dimethylsuccinyl)-17β-(4-methylbenzamido)-21-oxolup-18-ene] cannot be ordered by IC50: < 199 nM for the first, < 199 nM for the second.

CC(C)C1=C2C3CCC4[C@@]5(C)CC[C@H](OC(=O)CC(C)(C)C(=O)O)C(C)(C)C5CC[C@@]4(C)[C@]3(C)CC[C@@]2(NC(=O)N[C@H](C)c2ccccc2)CC1=O (stereo partly drawn) [17-62, 3β-O-(3′,3′-Dimethylsuccinyl)-17β-[N′-((R)-1-phenyl-ethyl)-ureido]-21-oxolup-18-ene] and CC(C)C1=C2[C@H]3CC[C@@H]4[C@@]5(C)CC[C@H](OC(=O)CC(C)(C)C(=O)O)C(C)(C)[C@@H]5CC[C@@]4(C)[C@]3(C)CC[C@@]2(NC(=O)c2cnn(C)c2)CC1=O [19-35, 3β-O-(3′,3′-Dimethylsuccinyl)-17β-(1-methyl-1H-pyrazole-4-amido)-21-oxolup-18-ene] cannot be ordered by IC50: < 199 nM for the first, < 199 nM for the second.

CC(C)C1=C2C3CCC4[C@@]5(C)CC[C@H](OC(=O)CC(C)(C)C(=O)O)C(C)(C)C5CC[C@@]4(C)[C@]3(C)CC[C@@]2(NC(=O)OCC2(N)CC2)CC1=O (stereo partly drawn) [20-12, 3β-O-(3′,3′-Dimethylsuccinyl)-17β-(1-amino-cyclopropylmethoxycarbonylamino)-21-oxolup-18-ene] and CC(C)C1=C2[C@H]3CC[C@@H]4[C@@]5(C)CC[C@H](OC(=O)CC(C)(C)C(=O)O)C(C)(C)[C@@H]5CC[C@@]4(C)[C@]3(C)CC[C@@]2(NC(=O)CN(C)C)CC1=O [19-53, 3β-O-(3′,3′-Dimethylsuccinyl)-17β-(2-dimethylamino-acetamido)-21-oxolup-18-ene] cannot be ordered by IC50: < 199 nM for the first, < 199 nM for the second.

Same assay, conditions: Human immunodeficiency virus 1, MT2 cells, without human serum, average IC50 if tested more than once, read-out: MT2 (HIVIIIB) IC50 range

CC(C)C1=C2[C@H]3CC[C@@H]4[C@@]5(C)CC[C@H](OC(=O)CC(C)(C)C(=O)O)C(C)(C)[C@@H]5CC[C@@]4(C)[C@]3(C)CC[C@@]2(NC(=O)NCc2ccccc2)CC1=O [17-1, 3β-O-(3′,3′-Dimethylsuccinyl)-17β[N′-(benzyl)ureido]-21-oxolup-18-ene] and CC(C)C1=C2[C@H]3CC[C@@H]4[C@@]5(C)CC[C@H](OC(=O)CC(C)(C)C(=O)O)C(C)(C)[C@@H]5CC[C@@]4(C)[C@]3(C)CC[C@@]2(NC(=O)Cc2ccc(F)cc2)CC1=O [19-9, 3β-O-(3′,3′-Dimethylsuccinyl)-17β-(4-fluorobenzyl)amido-21-oxolup-18-ene] cannot be ordered by IC50: < 199 nM for the first, < 199 nM for the second.

CC(C)OC(=O)N[C@@]12CC[C@]3(C)[C@H](CC[C@@H]4[C@@]5(C)CC[C@H](OC(=O)CC(C)(C)C(=O)O)C(C)(C)[C@@H]5CC[C@]43C)C1=C(C(C)C)C(=O)C2 [20-2] and CC(C)C1=C2[C@H]3CC[C@@H]4[C@@]5(C)CC[C@H](OC(=O)CC(C)(C)C(=O)O)C(C)(C)[C@@H]5CC[C@@]4(C)[C@]3(C)CC[C@@]2(NC(=O)CC(C)(C)C(=O)O)CC1=O [19-3, 3β-O,17β-N-bis(3′,3′-dimethylsuccinyl)-21-oxolup-18-ene] cannot be ordered by IC50: < 199 nM for the first, < 199 nM for the second.

For CC(C)C1=C2[C@H]3CC[C@@H]4[C@@]5(C)CC[C@H](OC(=O)CC(C)(C)C(=O)O)C(C)(C)[C@@H]5CC[C@@]4(C)[C@]3(C)CC[C@@]2(NC(=O)c2cnn(C)c2)CC1=O [19-35, 3β-O-(3′,3′-Dimethylsuccinyl)-17β-(1-methyl-1H-pyrazole-4-amido)-21-oxolup-18-ene], the IC50 was < 199 nM.
